Measured values reported in ChEMBL document CHEMBL4680347, “Discovery of novel 1,3,5-triazine derivatives as potent inhibitor of cervical cancer via dual inhibition of PI3K/mTOR” (Bioorg Med Chem, 2021).

What was measured:
[1] = target: Phosphatidylinositol 4,5-bisphosphate 3-kinase catalytic subunit alpha isoform (Homo sapiens, UniProt P42336); assay: Inhibition of PI3Kalpha (unknown origin) measured after 1 hr by ADP-glo plus luminescence assay
[2] = target: Serine/threonine-protein kinase mTOR (Homo sapiens, UniProt P42345); assay: Inhibition of mTOR (unknown origin) measured after 45 mins by LANCE Ultra assay

Phosphatidylinositol 4,5-bisphosphate 3-kinase catalytic subunit alpha isoform, sequence (P42336 whole entry, canonical isoform): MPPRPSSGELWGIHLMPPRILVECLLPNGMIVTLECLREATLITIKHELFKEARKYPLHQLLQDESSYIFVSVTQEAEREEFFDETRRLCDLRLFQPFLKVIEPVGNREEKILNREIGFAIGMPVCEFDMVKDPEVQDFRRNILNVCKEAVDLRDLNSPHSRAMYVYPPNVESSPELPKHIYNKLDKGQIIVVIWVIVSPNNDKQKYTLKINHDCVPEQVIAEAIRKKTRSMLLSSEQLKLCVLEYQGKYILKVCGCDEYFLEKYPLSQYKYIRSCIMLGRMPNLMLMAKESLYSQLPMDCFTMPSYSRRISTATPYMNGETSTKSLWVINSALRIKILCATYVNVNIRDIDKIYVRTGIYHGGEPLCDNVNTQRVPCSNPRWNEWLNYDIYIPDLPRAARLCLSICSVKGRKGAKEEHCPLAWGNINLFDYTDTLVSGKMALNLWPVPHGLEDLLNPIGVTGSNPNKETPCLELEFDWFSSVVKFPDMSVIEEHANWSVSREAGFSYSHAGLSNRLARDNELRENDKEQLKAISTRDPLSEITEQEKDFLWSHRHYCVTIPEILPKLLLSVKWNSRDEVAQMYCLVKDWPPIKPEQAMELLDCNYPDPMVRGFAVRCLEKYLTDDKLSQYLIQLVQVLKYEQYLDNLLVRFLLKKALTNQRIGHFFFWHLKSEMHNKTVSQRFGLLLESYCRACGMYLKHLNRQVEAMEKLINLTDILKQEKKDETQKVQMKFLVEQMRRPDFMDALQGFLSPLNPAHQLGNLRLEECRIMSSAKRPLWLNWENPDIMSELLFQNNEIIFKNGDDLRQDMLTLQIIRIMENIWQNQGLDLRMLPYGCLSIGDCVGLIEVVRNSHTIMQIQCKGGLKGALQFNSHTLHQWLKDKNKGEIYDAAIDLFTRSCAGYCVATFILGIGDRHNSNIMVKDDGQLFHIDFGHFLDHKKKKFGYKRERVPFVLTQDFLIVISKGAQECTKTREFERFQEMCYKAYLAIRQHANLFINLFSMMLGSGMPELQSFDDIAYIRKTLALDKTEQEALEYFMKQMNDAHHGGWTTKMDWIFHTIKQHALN

Row | IC50 [1] [nM] | IC50 [2] [nM] | Structure (SMILES)
1 | 32 | 32.3 | Cc1ccccc1S(=O)(=O)N1CCN(c2nc(NCCN3CCOCC3)nc(N3CCOCC3)n2)CC1
2 | 40.6 | 70.4 | O=S(=O)(c1ccccc1)N1CCN(c2nc(NCCN3CCOCC3)nc(N3CCOCC3)n2)CC1
3 | 42.2 | 66.3 | O=[N+]([O-])c1ccccc1S(=O)(=O)N1CCN(c2nc(NCCN3CCOCC3)nc(N3CCOCC3)n2)CC1
4 | 8.9 | 20.8 | COc1ccc(S(=O)(=O)N2CCN(c3nc(NCCN4CCOCC4)nc(N4CCOCC4)n3)CC2)cc1
5 | 38.9 | 76.8 | O=[N+]([O-])c1cccc(S(=O)(=O)N2CCN(c3nc(NCCN4CCOCC4)nc(N4CCOCC4)n3)CC2)c1
6 | 21.3 | 32.5 | O=S(=O)(c1ccccc1O)N1CCN(c2nc(NCCN3CCOCC3)nc(N3CCOCC3)n2)CC1
7 | 88 | 35.3 | O=S(=O)(c1ccc(F)cc1)N1CCN(c2nc(NCCN3CCOCC3)nc(N3CCOCC3)n2)CC1
8 | 123 | 98.3 | O=S(=O)(c1ccccc1F)N1CCN(c2nc(NCCN3CCOCC3)nc(N3CCOCC3)n2)CC1
9 | 24.6 | 22.2 | COc1cccc(S(=O)(=O)N2CCN(c3nc(NCCN4CCOCC4)nc(N4CCOCC4)n3)CC2)c1
